Laboratory results taken from patent publication US9662327B2 (AGIOS PHARMACEUTICALS, INC, priority 2011, dated 2017).

Target: IDH1 R132H (Homo sapiens (Human), UniProt O75874, R132H)
Experiment: Assays for IDH1 R132H Inhibitors (NADPH/aKG, resazurin detection)
Type: biochemical
Details: IDH1 R132H enzyme, Table 2; read-out: IDHR132H Activity
Method in brief: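 Substrate mix held 8 uM NADPH plus 2 mM aKG; buffer was 20 mM Tris pH 7.5 with 150 mM NaCl, 10 mM MgCl2, 0.03% BSA. After 50 min room-temperature reaction, NADPH remaining was detected with 30 μM resazurin mix over 5 min.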

Sequence of IDH1 R132H (O75874 whole entry R132H): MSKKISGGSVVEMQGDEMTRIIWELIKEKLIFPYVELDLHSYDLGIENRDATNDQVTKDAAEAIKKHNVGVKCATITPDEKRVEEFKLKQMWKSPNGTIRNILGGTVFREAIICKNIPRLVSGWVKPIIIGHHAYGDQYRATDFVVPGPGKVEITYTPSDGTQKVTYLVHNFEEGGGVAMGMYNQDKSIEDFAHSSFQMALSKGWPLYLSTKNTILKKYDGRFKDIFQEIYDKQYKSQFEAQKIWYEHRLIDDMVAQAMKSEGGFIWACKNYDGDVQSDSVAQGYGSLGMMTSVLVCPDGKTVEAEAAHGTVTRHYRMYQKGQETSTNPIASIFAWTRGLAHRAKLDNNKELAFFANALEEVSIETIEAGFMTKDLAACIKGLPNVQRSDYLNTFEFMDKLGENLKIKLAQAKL

Row | IC50 | Structure (SMILES)
1 | 0.5 to 1 µM | CC(C)[C@@H]1CN(c2nc(C3CC3)c3c(c2C#N)CC(C)(C)OC3)CCN1C(=O)OCCO [Compound 368, (R)-2-hydroxyethyl 4-(5-cyano-8-cyclopropyl-3,3-dimethyl-3,4-dihydro-1H-pyrano[3,4-c]pyridin-6-yl)-2-isopropylpiperazine-1-carboxylate]
2 | 1 to 10 µM | COCCN1CCN(c2nc(C3CC3)c3c(c2C#N)CC(C)(C)OC3)C[C@H]1C(C)C [Compound 369, (R)-8-cyclopropyl-6-(3-isopropyl-4-(2-methoxyethyl)piperazin-1-yl)-3,3-dimethyl-3,4-dihydro-1H-pyrano[3,4-c]pyridine-5-carbonitrile]
3 | 1 to 10 µM | CC(C)[C@@H]1CN(c2nc(C3CC3)c3c(c2C#N)CC(C)(C)OC3)CCN1C(=O)OCC1CC1 [Compound 370, (R)-cyclopropylmethyl 4-(5-cyano-8-cyclopropyl-3,3-dimethyl-3,4-dihydro-1H-pyrano[3,4-c]pyridine-6-yl)-2-isopropylpiperazine-1-carboxylate]
4 | 1 to 10 µM | CC(C)[C@@H]1CN(c2nc(C3CC3)c3c(c2C#N)CC(C)(C)OC3)CCN1C(=O)CNC1CC1 [Compound 372, (R)-8-cyclopropyl-6-(4-(2-(cyclopropylamino)acetyl)-3-isopropylpiperazin-1-yl)-3,3-dimethyl-3,4-dihydro-1H-pyrano[3,4-c]pyridine-5-carbonitrile]
5 | 1 to 10 µM | C#CCNCC(=O)N1CCN(c2nc(C3CC3)c3c(c2C#N)CC(C)(C)OC3)C[C@H]1C(C)C [Compound 373, (R)-8-cyclopropyl-6-(3-isopropyl-4-(2-(prop-2-ynylamino)acetyl)piperazin-1-yl)-3,3-dimethyl-3,4-dihydro-1H-pyrano[3,4-c]pyridine-5-carbonitrile]
6 | 1 to 10 µM | CC(C)[C@@H]1CN(c2nc(C3CC3)c3c(c2C#N)CC(C)(C)OC3)CCN1C(=O)Cn1ccnc1 [Compound 374, (R)-6-(4-(2-(1H-imidazol-1-yl)acetyl)-3-isopropylpiperazin-1-yl)-8-cyclopropyl-3,3-dimethyl-3,4-dihydro-1H-pyrano[3,4-c]pyridine-5-carbonitrile]
7 | 1 to 10 µM | C[C@@H]1CN(c2nc(C3CCCCC3)c3c(c2C#N)CCOC3)CCN1C(=O)C1CC1 [Compound 375, (R)-8-cyclohexyl-6-(4-(cyclopropanecarbonyl)-3-methylpiperazin-1-yl)-3,4-dihydro-1H-pyrano[3,4-c]pyridine-5-carbonitrile]
8 | < 0.5 µM | CC(C)[C@@H]1CN(c2nc(C3CC3)c3c(c2C#N)CC(C)(C)OC3)CCN1C(=O)C1CC1 [Compound 376, (R)-6-(4-(cyclopropanecarbonyl)-3-isopropylpiperazin-1-yl)-8-cyclopropyl-3,3-dimethyl-3,4-dihydro-1H-pyrano[3,4-c]pyridine-5-carbonitrile]
9 | 1 to 10 µM | CCCNC(=O)N1CCN(c2nc(C3CCCCC3)c3c(c2C#N)CCOC3)C[C@H]1C [Compound 378, (R)-4-(5-cyano-8-cyclohexyl-3,4-dihydro-1H-pyrano[3,4-c]pyridin-6-yl)-2-methyl-N-propylpiperazine-1-carboxamide]
10 | 1 to 10 µM | CCCC(=O)N1CCN(c2nc(C3CCCCC3)c3c(c2C#N)CCOC3)C[C@H]1C [Compound 379, (R)-6-(4-butyryl-3-methylpiperazin-1-yl)-8-cyclohexyl-3,4-dihydro-1H-pyrano[3,4-c]pyridine-5-carbonitrile]
11 | 1 to 10 µM | Cc1nccn1CC(=O)N1CCN(c2nc(C3CC3)c3c(c2C#N)CC(C)(C)OC3)C[C@H]1C(C)C [Compound 380, (R)-8-cyclopropyl-6-(3-isopropyl-4-(2-(2-methyl-1H-imidazol-1-yl)acetyl)piperazin-1-yl)-3,3-dimethyl-3,4-dihydro-1H-pyrano[3,4-c]pyridine-5-carbonitrile]
12 | 0.5 to 1 µM | CCCOCC(=O)N1CCN(c2nc(C3CC3)c3c(c2C#N)CC(C)(C)OC3)C[C@H]1C(C)C [Compound 381]
13 | < 0.5 µM | CC(C)[C@@H]1CN(c2nc(C3CC3)c3c(c2C#N)CC(C)(C)OC3)CCN1C(=O)CC1CC1 [Compound 382, (R)-8-cyclopropyl-6-(4-(2-cyclopropylacetyl)-3-isopropylpiperazin-1-yl)-3,3-dimethyl-3,4-dihydro-1H-pyrano[3,4-c]pyridine-5-carbonitrile]
14 | < 0.5 µM | CCCC(=O)N1CCN(c2nc(C3CC3)c3c(c2C#N)CC(C)(C)OC3)C[C@H]1C(C)C [Compound 383]
15 | 1 to 10 µM | CC(C)[C@@H]1CN(c2nc(C3CC3)c3c(c2C#N)CC(C)(C)OC3)CCN1C(=O)COc1cccc(F)c1 [Compound 384]
16 | 1 to 10 µM | CC(C)[C@@H]1CN(c2nc(C3(C)CC3)c3c(c2C#N)CC(C)(C)OC3)CCN1C(=O)c1ccoc1 [Compound 386]
17 | 0.5 to 1 µM | COC(=O)C1CN(c2nc(C3CC3)c3c(c2C#N)CC(C)(C)OC3)CCN1C(=O)c1ccoc1 (stereo not drawn) [Compound 387]

Row | IC50 | Structure (SMILES)
18 | 0.5 to 1 µM | COCCC(=O)N1CCN(c2nc(C3CC3)c3c(c2C#N)CC(C)(C)OC3)CC1C(=O)OC (stereo not drawn) [Compound 388]
19 | 1 to 10 µM | COCCC(=O)N1CCN(c2nc(C3CC3)c3c(c2C#N)CC(C)(C)OC3)C[C@@H]1CC(C)C [Compound 389]
20 | 0.5 to 1 µM | CC(C)[C@@H]1CN(c2nc(C3CC3)c3c(c2C#N)CC(C)(C)OC3)CCN1C(=O)COCC1CC1 [Compound 390]
21 | 1 to 10 µM | CCS(=O)(=O)N1CCN(c2nc(C3CC3)c3c(c2C#N)CC(C)(C)OC3)C[C@H]1C(C)C [Compound 391, (R)-8-cyclopropyl-6-(4-(ethylsulfonyl)-3-isopropylpiperazin-1-yl)-3,3-dimethyl-3,4-dihydro-1H-pyrano[3,4-c]pyridine-5-carbonitrile]
22 | 0.5 to 1 µM | COC(=O)C1CN(c2nc(C(C)C)c3c(c2C#N)CC(C)(C)OC3)CCN1C(=O)c1ccoc1 (stereo not drawn) [Compound 393, methyl 4-(5-cyano-8-isopropyl-3,3-dimethyl-3,4-dihydro-1H-pyrano[3,4-c]pyridin-6-yl)-1-(furan-3-carbonyl)piperazine-2-carboxylate]
23 | 0.5 to 1 µM | COC(=O)C1CN(c2nc(C3CC3)c3c(c2C#N)CC(C)(C)OC3)CCN1C(=O)c1ccoc1C (stereo not drawn) [Compound 394, methyl 4-(5-cyano-8-cyclopropyl-3,3-dimethyl-3,4-dihydro-1H-pyrano[3,4-c]pyridin-6-yl)-1-(2-methylfuran-3-carbonyl)piperazine-2-carboxylate]
24 | < 0.5 µM | COCCC(=O)N1CCN(c2nc(C3CCC3)c3c(c2C#N)CC(C)(C)OC3)C[C@H]1C(C)C [Compound 395, (R)-8-cyclobutyl-6-(3-isopropyl-4-(3-methoxypropanoyl)piperazin-1-yl)-3,3-dimethyl-3,4-dihydro-1H-pyrano[3,4-c]pyridine-5-carbonitrile]
25 | 0.5 to 1 µM | CC(C)[C@@H]1CN(c2nc(C3CCC3)c3c(c2C#N)CC(C)(C)OC3)CCN1C(=O)C1CC1 [Compound 396, (R)-8-cyclobutyl-6-(4-(cyclopropanecarbonyl)-3-isopropylpiperazin-1-yl)-3,3-dimethyl-3,4-dihydro-1H-pyrano[3,4-c]pyridine-5-carbonitrile]
26 | 1 to 10 µM | COC(=O)CN1CCN(c2nc(C3CC3)c3c(c2C#N)CC(C)(C)OC3)C[C@H]1C(C)C [Compound 397, (R)-methyl 2-(4-(5-cyano-8-cyclopropyl-3,3-dimethyl-3,4-dihydro-1H-pyrano[3,4-c]pyridin-6-yl)-2-isopropylpiperazin-1-yl)acetate]
27 | 1 to 10 µM | CC(C)[C@@H]1CN(c2nc(C3CC3)c3c(c2C#N)CC(C)(C)OC3)CCN1C(=O)NC1CC1 [Compound 398, (R)-4-(5-cyano-8-cyclopropyl-3,3-dimethyl-3,4-dihydro-1H-pyrano[3,4-c]pyridin-6-yl)-N-cyclopropyl-2-isopropylpiperazine-1-carboxamide]
28 | 1 to 10 µM | CC(C)[C@@H]1CN(c2nc(C3CC3)c3c(c2C#N)CC(C)(C)OC3)CCN1C(=O)COc1cccnc1 [Compound 399, (R)-8-cyclopropyl-6-(3-isopropyl-4-(2-(pyridin-3-yloxy)acetyl)piperazin-1-yl)-3,3-dimethyl-3,4-dihydro-1H-pyrano[3,4-c]pyridine-5-carbonitrile]
29 | 1 to 10 µM | Cc1ccn(CC(=O)N2CCN(c3nc(C4CC4)c4c(c3C#N)CC(C)(C)OC4)C[C@H]2C(C)C)n1 [Compound 400, (R)-8-cyclopropyl-6-(3-isopropyl-4-(2-(3-methyl-1H-pyrazol-1-yl)acetyl)piperazin-1-yl)-3,3-dimethyl-3,4-dihydro-1H-pyrano[3,4-c]pyridine-5-carbonitrile]
30 | < 0.5 µM | Cc1cnn(CC(=O)N2CCN(c3nc(C4CC4)c4c(c3C#N)CC(C)(C)OC4)C[C@H]2C(C)C)c1 [Compound 401, (R)-8-cyclopropyl-6-(3-isopropyl-4-(2-(4-methyl-1H-pyrazol-1-yl)acetyl)piperazin-1-yl)-3,3-dimethyl-3,4-dihydro-1H-pyrano[3,4-c]pyridine-5-carbonitrile]
31 | 1 to 10 µM | COCC1CN(c2nc(C3CC3)c3c(c2C#N)CC(C)(C)OC3)CCN1C(=O)c1ccoc1 (stereo not drawn) [Compound 402, 8-cyclopropyl-6-(4-(furan-3-carbonyl)-3-(methoxymethyl)piperazin-1-yl)-3,3-dimethyl-3,4-dihydro-1H-pyrano[3,4-c]pyridine-5-carbonitrile]
32 | 1 to 10 µM | COCCC(=O)N1CCN(c2nc(C3CC3)c3c(c2C#N)CC(C)(C)OC3)CC1COC (stereo not drawn) [Compound 403, 8-cyclopropyl-6-(3-(methoxymethyl)-4-(3-methoxypropanoyl)piperazin-1-yl)-3,3-dimethyl-3,4-dihydro-1H-pyrano[3,4-c]pyridine-5-carbonitrile]
33 | 1 to 10 µM | CC(C)[C@@H]1CN(c2nc(C3CC3)c3c(c2C#N)CC(C)(C)OC3)CCN1C(=O)COCc1ccco1 [Compound 404, (R)-8-cyclopropyl-6-(4-(2-(furan-2-ylmethoxy)acetyl)-3-isopropylpiperazin-1-yl)-3,3-dimethyl-3,4-dihydro-1H-pyrano[3,4-c]pyridine-5-carbonitrile]
